# Key:
# Format in all cases: cell-based
# [1] = molecular target: T1, IAP/Androgen receptor (Homo sapiens) (UniProt P10275+P98170+Q13490); test: SNIPER activity at IAP/AR in human MCF7 cells assessed as induction of AR protein degradation by measuring AR protein level at 20 uM incubated for 8 hrs in presence of ubiquitin activating inhibitor MLN7243 by western blot analysis relative to lamin B
# [2] = molecular target: T2, Baculoviral IAP repeat-containing protein 2/E3 ubiquitin-protein ligase XIAP/Aryl hydrocarbon receptor (Homo sapiens, UniProt P35869+P98170+Q13490); test: SNIPER activity at IAP/AhR in human MCF7 cells assessed as induction of AhR protein degradation by measuring AhR protein level at 20 uM incubated for 8 hrs in presence of proteasome inhibitor, MG132 by western blot analysis relative to lamin B; details: mcf7, 8 h
# [3] = molecular target: T3, IAP-Estrogen receptor (Homo sapiens) (UniProt P03372+P98170+Q13490); test: SNIPER activity at IAP/ERalpha in human MCF7 cells assessed as induction of ERalpha protein degradation by measuring ERalpha protein level at 5 uM incubated for 8 hrs by western blot analysis relative to lamin B
# [4] = molecular target: T3, IAP-Estrogen receptor (Homo sapiens); test: SNIPER activity at IAP/ERalpha in human MCF7 cells assessed as induction of ERalpha protein degradation incubated for 8 to 24 hrs by western blot analysis; details: time hrs 8-24
# [5] = molecular target: T3, IAP-Estrogen receptor (Homo sapiens); test: SNIPER activity at IAP/ERalpha in human MCF7 cells assessed as induction of ERalpha protein degradation by measuring ERalpha protein level at 10 uM incubated for 24 hrs by western blot analysis relative to lamin B
# [6] = molecular target: T1, IAP/Androgen receptor (Homo sapiens); test: SNIPER activity at IAP/AR in human MCF7 cells assessed as induction of AR protein degradation by measuring AR protein level at 20 uM incubated for 24 hrs by western blot analysis relative to lamin B
# [7] = molecular target: T2, Baculoviral IAP repeat-containing protein 2/E3 ubiquitin-protein ligase XIAP/Aryl hydrocarbon receptor; test: SNIPER activity at IAP/AhR in human MCF7 cells assessed as induction of AhR protein degradation by measuring AhR protein level at 10 uM incubated for 24 hrs by western blot analysis relative to lamin B; details: mcf7, 24 h
# [8] = molecular target: T2, Baculoviral IAP repeat-containing protein 2/E3 ubiquitin-protein ligase XIAP/Aryl hydrocarbon receptor; test: SNIPER activity at IAP/AhR in human MCF7 cells assessed as induction of AhR protein degradation by measuring AhR protein level at 10 uM incubated for 8 hrs by western blot analysis relative to lamin B; details: mcf7, 8 h
# [9] = molecular target: T3, IAP-Estrogen receptor (Homo sapiens); test: SNIPER activity at IAP/ERalpha in human MCF7 cells assessed as induction of ERalpha protein degradation by measuring ERalpha protein level at 20 uM incubated for 8 hrs in presence of proteasome inhibitor, MG132 by western blot analysis relative to lamin B
# [10] = molecular target: T3, IAP-Estrogen receptor (Homo sapiens); test: SNIPER activity at IAP/ERalpha in human MCF7 cells assessed as induction of ERalpha protein degradation by measuring ERalpha protein level at 20 uM incubated for 24 hrs by western blot analysis relative to lamin B
# [11] = molecular target: T1, IAP/Androgen receptor (Homo sapiens); test: SNIPER activity at IAP/AR in human MCF7 cells assessed as induction of AR protein degradation by measuring AR protein level at 20 uM incubated for 8 hrs by western blot analysis relative to lamin B
# [12] = molecular target: T2, Baculoviral IAP repeat-containing protein 2/E3 ubiquitin-protein ligase XIAP/Aryl hydrocarbon receptor; test: SNIPER activity at IAP/AhR in human MCF7 cells assessed as induction of AhR protein degradation by measuring AhR protein level at 5 uM incubated for 24 hrs by western blot analysis relative to lamin B; details: mcf7, 24 h
# [13] = molecular target: T3, IAP-Estrogen receptor (Homo sapiens); test: SNIPER activity at IAP/ERalpha in human MCF7 cells assessed as induction of ERalpha protein degradation by measuring ERalpha protein level at 20 uM incubated for 8 hrs by western blot analysis relative to lamin B
# [14] = molecular target: T2, Baculoviral IAP repeat-containing protein 2/E3 ubiquitin-protein ligase XIAP/Aryl hydrocarbon receptor; test: SNIPER activity at IAP/AhR in human MCF7 cells assessed as induction of AhR protein degradation by measuring AhR protein level at 20 uM incubated for 8 hrs in presence of ubiquitin activating inhibitor MLN7243 by western blot analysis relative to lamin B; details: mcf7, 8 h
# [15] = molecular target: T2, Baculoviral IAP repeat-containing protein 2/E3 ubiquitin-protein ligase XIAP/Aryl hydrocarbon receptor; test: SNIPER activity at IAP/AhR in human MCF7 cells assessed as induction of AhR protein degradation by measuring AhR protein level at 20 uM incubated for 8 hrs by western blot analysis relative to lamin B; details: mcf7, 8 h
# [16] = molecular target: T1, IAP/Androgen receptor (Homo sapiens); test: SNIPER activity at IAP/AR in human MCF7 cells assessed as induction of AR protein degradation by measuring AR protein level at 5 uM incubated for 8 hrs by western blot analysis relative to lamin B
# [17] = molecular target: T3, IAP-Estrogen receptor (Homo sapiens); test: SNIPER activity at IAP/ERalpha in human MCF7 cells assessed as induction of ERalpha protein degradation by measuring ERalpha protein level at 20 uM incubated for 8 hrs in presence of ubiquitin activating inhibitor MLN7243 by western blot analysis relative to lamin B
# [18] = molecular target: T1, IAP/Androgen receptor (Homo sapiens); test: SNIPER activity at IAP/AR in human MCF7 cells assessed as induction of AR protein degradation by measuring AR protein level at 10 uM incubated for 24 hrs by western blot analysis relative to lamin B
# [19] = molecular target: T3, IAP-Estrogen receptor (Homo sapiens); test: SNIPER activity at IAP/ERalpha in human MCF7 cells assessed as induction of ERalpha protein degradation by measuring ERalpha protein level at 5 uM incubated for 24 hrs by western blot analysis relative to lamin B
# [20] = molecular target: T1, IAP/Androgen receptor (Homo sapiens); test: SNIPER activity at IAP/AR in human MCF7 cells assessed as induction of AR protein degradation incubated for 8 to 24 hrs by western blot analysis; details: time hrs 8-24
# [21] = molecular target: T1, IAP/Androgen receptor (Homo sapiens); test: SNIPER activity at IAP/AR in human MCF7 cells assessed as induction of AR protein degradation by measuring AR protein level at 10 uM incubated for 8 hrs by western blot analysis relative to lamin B
# [22] = molecular target: T2, Baculoviral IAP repeat-containing protein 2/E3 ubiquitin-protein ligase XIAP/Aryl hydrocarbon receptor; test: SNIPER activity at IAP/AhR in human MCF7 cells assessed as induction of AhR protein degradation by measuring AhR protein level at 5 uM incubated for 8 hrs by western blot analysis relative to lamin B; details: mcf7, 8 h
# [23] = molecular target: T1, IAP/Androgen receptor (Homo sapiens); test: SNIPER activity at IAP/AR in human MCF7 cells assessed as induction of AR protein degradation by measuring AR protein level at 20 uM incubated for 8 hrs in presence of proteasome inhibitor, MG132 by western blot analysis relative to lamin B
# [24] = molecular target: T2, Baculoviral IAP repeat-containing protein 2/E3 ubiquitin-protein ligase XIAP/Aryl hydrocarbon receptor; test: SNIPER activity at IAP/AhR in human MCF7 cells assessed as induction of AhR protein degradation by measuring AhR protein level at 20 uM incubated for 24 hrs by western blot analysis relative to lamin B; details: mcf7, 24 h
# [25] = molecular target: T1, IAP/Androgen receptor (Homo sapiens); test: SNIPER activity at IAP/AR in human MCF7 cells assessed as induction of AR protein degradation by measuring AR protein level at 5 uM incubated for 24 hrs by western blot analysis relative to lamin B
# [26] = molecular target: T3, IAP-Estrogen receptor (Homo sapiens); test: SNIPER activity at IAP/ERalpha in human MCF7 cells assessed as induction of ERalpha protein degradation by measuring ERalpha protein level at 10 uM incubated for 8 hrs by western blot analysis relative to lamin B
# [27] = molecular target: T1, IAP/Androgen receptor (Homo sapiens); test: SNIPER activity at IAP/AR in XIAP/cIAP1 siRNA-transfected human MCF7 cells assessed as induction of AR protein degradation by measuring AR protein level at 20 uM incubated for 8 hrs by western blot analysis relative to lamin B
# [28] = molecular target: T1, IAP/Androgen receptor (Homo sapiens); test: SNIPER activity at IAP/AR in cIAP1 siRNA-transfected human MCF7 cells assessed as induction of AR protein degradation by measuring AR protein level at 20 uM incubated for 8 hrs by western blot analysis relative to lamin B
# [29] = molecular target: T3, IAP-Estrogen receptor (Homo sapiens); test: SNIPER activity at IAP/ERalpha in cIAP1 siRNA-transfected human MCF7 cells assessed as induction of ERalpha protein degradation by measuring ERalpha protein level at 20 uM incubated for 8 hrs by western blot analysis relative to lamin B
# [30] = molecular target: T3, IAP-Estrogen receptor (Homo sapiens); test: SNIPER activity at IAP/ERalpha in XIAP/cIAP1 siRNA-transfected human MCF7 cells assessed as induction of ERalpha protein degradation by measuring ERalpha protein level at 20 uM incubated for 8 hrs by western blot analysis relative to lamin B
# [31] = molecular target: T3, IAP-Estrogen receptor (Homo sapiens); test: SNIPER activity at IAP/ERalpha in XIAP siRNA-transfected human MCF7 cells assessed as induction of ERalpha protein degradation by measuring ERalpha protein level at 20 uM incubated for 8 hrs by western blot analysis relative to lamin B
# [32] = molecular target: T1, IAP/Androgen receptor (Homo sapiens); test: SNIPER activity at IAP/AR in XIAP siRNA-transfected human MCF7 cells assessed as induction of AR protein degradation by measuring AR protein level at 20 uM incubated for 8 hrs by western blot analysis relative to lamin B
# T3 sequence (P03372 whole entry, looked up): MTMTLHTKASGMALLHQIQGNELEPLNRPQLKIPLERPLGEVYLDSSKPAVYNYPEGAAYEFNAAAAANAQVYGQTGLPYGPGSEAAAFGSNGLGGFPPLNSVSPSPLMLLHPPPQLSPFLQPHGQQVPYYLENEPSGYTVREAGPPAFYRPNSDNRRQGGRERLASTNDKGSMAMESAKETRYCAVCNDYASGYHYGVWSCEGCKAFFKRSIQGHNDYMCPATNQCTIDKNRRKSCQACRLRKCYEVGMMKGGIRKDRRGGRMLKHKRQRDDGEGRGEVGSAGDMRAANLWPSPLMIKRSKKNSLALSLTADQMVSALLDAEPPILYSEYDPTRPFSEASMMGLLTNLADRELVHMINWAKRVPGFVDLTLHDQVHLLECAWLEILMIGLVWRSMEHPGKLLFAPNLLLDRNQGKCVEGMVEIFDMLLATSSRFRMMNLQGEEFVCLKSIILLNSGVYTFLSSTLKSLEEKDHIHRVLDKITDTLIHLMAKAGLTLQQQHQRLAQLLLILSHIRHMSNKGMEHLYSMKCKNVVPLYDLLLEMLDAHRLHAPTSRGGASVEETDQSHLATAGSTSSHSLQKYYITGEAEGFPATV
# T3 sequence (P98170 whole entry, looked up): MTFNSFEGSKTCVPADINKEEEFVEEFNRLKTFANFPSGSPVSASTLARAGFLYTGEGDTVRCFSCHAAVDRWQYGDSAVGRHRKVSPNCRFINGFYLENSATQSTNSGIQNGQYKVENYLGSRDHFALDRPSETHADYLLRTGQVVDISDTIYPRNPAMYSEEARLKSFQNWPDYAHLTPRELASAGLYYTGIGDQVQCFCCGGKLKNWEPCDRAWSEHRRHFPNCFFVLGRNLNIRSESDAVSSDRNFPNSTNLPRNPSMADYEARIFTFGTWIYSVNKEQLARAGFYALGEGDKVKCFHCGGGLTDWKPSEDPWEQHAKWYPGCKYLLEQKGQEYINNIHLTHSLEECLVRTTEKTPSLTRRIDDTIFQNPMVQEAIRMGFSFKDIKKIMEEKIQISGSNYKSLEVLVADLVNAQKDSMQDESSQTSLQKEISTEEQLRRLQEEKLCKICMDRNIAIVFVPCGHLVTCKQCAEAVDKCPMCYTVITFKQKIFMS
# T3 sequence (Q13490 whole entry, looked up): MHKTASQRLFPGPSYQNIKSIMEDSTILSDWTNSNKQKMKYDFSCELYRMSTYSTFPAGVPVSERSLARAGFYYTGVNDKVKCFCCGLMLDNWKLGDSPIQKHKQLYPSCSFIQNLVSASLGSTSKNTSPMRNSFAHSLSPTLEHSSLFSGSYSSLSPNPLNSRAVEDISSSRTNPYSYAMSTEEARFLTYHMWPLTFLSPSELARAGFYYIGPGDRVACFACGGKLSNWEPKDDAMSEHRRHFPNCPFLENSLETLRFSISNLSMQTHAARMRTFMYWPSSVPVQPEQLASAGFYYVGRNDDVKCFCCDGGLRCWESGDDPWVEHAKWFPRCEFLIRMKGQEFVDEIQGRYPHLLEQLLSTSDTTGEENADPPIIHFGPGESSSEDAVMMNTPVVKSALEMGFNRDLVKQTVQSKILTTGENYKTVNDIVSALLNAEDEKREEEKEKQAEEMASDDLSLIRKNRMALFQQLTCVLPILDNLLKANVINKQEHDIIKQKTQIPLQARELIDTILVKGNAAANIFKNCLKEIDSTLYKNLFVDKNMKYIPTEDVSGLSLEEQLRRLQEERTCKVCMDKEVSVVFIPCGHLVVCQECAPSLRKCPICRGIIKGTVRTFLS
# T2 sequence (P35869 whole entry): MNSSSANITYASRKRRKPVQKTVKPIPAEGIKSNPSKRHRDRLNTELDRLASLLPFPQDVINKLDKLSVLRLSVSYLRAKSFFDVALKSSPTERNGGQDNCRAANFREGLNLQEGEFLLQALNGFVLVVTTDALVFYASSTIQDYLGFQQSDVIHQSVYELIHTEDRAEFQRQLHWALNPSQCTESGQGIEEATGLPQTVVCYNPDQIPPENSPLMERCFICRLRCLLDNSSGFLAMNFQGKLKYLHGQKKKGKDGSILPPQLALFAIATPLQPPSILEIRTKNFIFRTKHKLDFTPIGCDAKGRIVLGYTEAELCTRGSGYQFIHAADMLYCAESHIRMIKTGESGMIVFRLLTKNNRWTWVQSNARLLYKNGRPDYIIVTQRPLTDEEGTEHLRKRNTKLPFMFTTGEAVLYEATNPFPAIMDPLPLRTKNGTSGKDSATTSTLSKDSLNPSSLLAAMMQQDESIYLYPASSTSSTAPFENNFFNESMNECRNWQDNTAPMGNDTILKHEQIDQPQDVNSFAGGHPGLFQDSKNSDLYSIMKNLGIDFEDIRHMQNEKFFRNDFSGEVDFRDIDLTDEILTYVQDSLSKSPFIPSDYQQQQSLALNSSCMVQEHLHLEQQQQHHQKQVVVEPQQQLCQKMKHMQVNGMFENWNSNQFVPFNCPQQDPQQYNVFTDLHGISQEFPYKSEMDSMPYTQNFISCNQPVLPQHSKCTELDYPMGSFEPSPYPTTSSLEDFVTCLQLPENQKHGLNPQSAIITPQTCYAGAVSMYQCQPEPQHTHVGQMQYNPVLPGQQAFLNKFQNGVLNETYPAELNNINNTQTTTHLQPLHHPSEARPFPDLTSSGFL
# T2 sequence (P98170 whole entry): as the sequence (P98170 whole entry, looked up) above
# T2 sequence (Q13490 whole entry): as the sequence (Q13490 whole entry, looked up) above
Activity [1],Activity [2],Activity [3],Activity [4],Activity [5],Activity [6],Activity [7],Activity [8],Activity [9],Activity [10],Activity [11],Activity [12],Activity [13],Activity [14],Activity [15],Activity [16],Activity [17],Activity [18],Activity [19],Activity [20],Compound,other results
110%,91%,84%,Dose-dependent effect,75%,57%,189%,129%,88%,34%,35%,97%,48%,107%,82%,80%,119%,152%,79%,Dose-dependent effect,CC[C@H](C)[C@@H]1NC(=O)[C@H](NC(=O)[C@@H](N)CCCCNC(=O)COCCOCCNC(=O)COCCOCCNC(=O)[C@@H](NC(=O)[C@@H]2CCCN2C(=O)[C@@H](NC(=O)[C@H](C)NC)C2CCCCC2)C(c2ccccc2)c2ccccc2)CSSC[C@@H](C(=O)N[C@@H](CCCNC(=N)N)C(=O)N[C@@H](CC(C)(C)C)C(=O)N[C@@H](CC(C)C)C(=O)N[C@@H](CCC(N)=O)C(=O)NCC(=O)NCC(=O)NCC(=O)N[C@@H](CCCNC(=N)N)C(=O)N[C@@H](CCCNC(=N)N)C(=O)N[C@@H](CCCNC(=N)N)C(=O)N[C@@H](CCCNC(=N)N)C(=O)N[C@@H](CCCNC(=N)N)C(=O)N[C@@H](CCCNC(=N)N)C(=O)N[C@@H](CCCNC(=N)N)C(N)=O)NC(=O)[C@H](CC(C)C)NC1=O,Activity [21]: 56%; Activity [22]: 119%; Activity [23]: 90%; Activity [24]: 125%; Activity [25]: 97%; Activity [26]: 66%
117%,90%,84%,Dose-dependent effect,76%,59%,165%,128%,94%,35%,36%,100%,46%,110%,80%,81%,122%,137%,81%,Dose-dependent effect,CC[C@H](C)[C@@H]1NC(=O)[C@H](NC(=O)[C@@H](N)CCCCNC(=O)COCCOCCNC(=O)COCCOCCOc2cccc(C(=O)c3csc([C@@H]4CCCN4C(=O)[C@@H](NC(=O)[C@H](C)NC)C4CCCCC4)n3)c2)CSSC[C@@H](C(=O)N[C@@H](CCCNC(=N)N)C(=O)N[C@@H](CC(C)(C)C)C(=O)N[C@@H](CC(C)C)C(=O)N[C@@H](CCC(N)=O)C(=O)NCC(=O)NCC(=O)NCC(=O)N[C@@H](CCCNC(=N)N)C(=O)N[C@@H](CCCNC(=N)N)C(=O)N[C@@H](CCCNC(=N)N)C(=O)N[C@@H](CCCNC(=N)N)C(=O)N[C@@H](CCCNC(=N)N)C(=O)N[C@@H](CCCNC(=N)N)C(=O)N[C@@H](CCCNC(=N)N)C(N)=O)NC(=O)[C@H](CC(C)C)NC1=O,Activity [27]: 59%; Activity [28]: 78%; Activity [21]: 63%; Activity [22]: 111%; Activity [29]: 50%; Activity [23]: 95%; Activity [30]: 55%; Activity [24]: 103%; Activity [25]: 99%; Activity [31]: 62%; Activity [26]: 68%; Activity [32]: 57%

# — ChEMBL document CHEMBL4725279, “Design and synthesis of peptide-based chimeric molecules to induce degradation of the estrogen and androgen receptors” (Bioorg Med Chem, 2020)
